Common to all, as to assay: inhibition of tumour cell growth, NCI panel, 48 h
Experiment [1] relates to MALME-3M melanoma.
The subject of experiment [2] is PC-3 prostate.
Experiment [3] concerns OVCAR-8 ovarian.
For experiment [4], the system named is SN12C renal.
Experiment [5] concerns NCI/ADR-RES ovarian.
Experiment [6] has as its system BT-549 breast.
In experiment [7] the test system is A549 NSCLC.
Experiment [8] has as its system COLO 205 colon.
For experiment [9], the system named is K-562 leukemia.
Experiment [10] concerns OVCAR-4 ovarian.
In experiment [11] the test system is MDA-N.
Experiment [12] has as its system TK-10 renal.
Experiment [13] has as its system KM12 colon.
Experiment [14] concerns SK-MEL-28 melanoma.
Experiment [15] has as its system SK-MEL-5 melanoma.
Experiment [16] concerns HCT-116 colon.
The test system of experiment [17] is T-47D breast.
Experiment [18] relates to SR leukemia.

The structures appear in SMILES notation.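 Tested at 5 concentrations; 48 h exposure; 96-well plates; endpoints linearly interpolated, else capped at highest concentration. TGI marks complete inhibition of growth.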

For `CCCCCCCCOP(=O)(O)OP(=O)(O)OCC1OC(n2ccc(N)nc2=O)C(O)C1O` (stereo unspecified), the TGI in experiment [1], in experiment [2], in experiment [3], in experiment [4], in [5] and in experiment [6] was more than 100 µM each time. Moreover, the TGI in [7], in [8], in [9], in experiment [10], in experiment [11] and in experiment [12] was more than 100 µM each time. In addition, the TGI in experiment [13], in experiment [14], in [15], in experiment [16] and in experiment [17] was more than 100 µM throughout.
With `CC(C)(Cl)C(Br)CCC(=CCBr)CBr` (mixture of isomers), the TGI in experiment [1] was 4.74 µM; in experiment [2], 18 µM; in experiment [3] it was 9.25 µM; in experiment [4], 8.39 µM; in [5] it was more than 24.5 µM; in experiment [6], 7.5 µM. Moreover, the TGI in experiment [7] amounted to 29.9 µM; in experiment [8] it was 4.91 µM; in [9], 4.18 µM; in experiment [10], 5.06 µM; in [11] it was 6.13 µM; in [12] it was 12.5 µM. The TGI is 5.93 µM in [13]; 10.8 µM in [14]; 7.77 µM in [15]; 3.66 µM in experiment [16]; 17.3 µM in experiment [17].
For `O=C(c1ccccc1)c1ccc(N2C(=O)/C(=C/c3cccc([N+](=O)[O-])c3)N=C2c2ccccc2)c(N2C(=O)/C(=C/c3cccc([N+](=O)[O-])c3)N=C2c2ccccc2)c1`, the TGI in experiment [2], in [3], in [4], in [5], in experiment [18] and in experiment [6] was more than 100 µM each time. Besides, the TGI in experiment [7] is more than 100 µM; in [8] it was 11.1 µM; in [9], more than 100 µM; in experiment [10], more than 100 µM; in [11], 86.6 µM; in experiment [12], more than 100 µM. Moreover, the TGI in experiment [13] is more than 100 µM; in experiment [14] it was more than 100 µM; in experiment [15] it was 18.9 µM; in experiment [16], more than 100 µM; in experiment [17], more than 100 µM.
On to `CN1CCC2(CC1)C(=O)N(NC(N)=O)C(=O)C2c1ccccc1` (stereo unspecified), for which the TGI in experiment [1], in experiment [2], in [3], in experiment [4], in [5] and in experiment [6] was more than 100 µM throughout. Besides, the TGI in experiment [7], in [8], in experiment [9], in experiment [10], in experiment [11] and in experiment [12] was more than 100 µM throughout. Moreover, the TGI in experiment [13], in experiment [14], in [15], in [16] and in [17] was more than 100 µM each time.
Take `CCOC(=O)c1ccc(N(C)Cc2cnc3nc(N)nc(N)c3n2)cc1`: the TGI was 51.1 µM in [1]; 88.4 µM in [2]; 29.2 µM in [3]; more than 100 µM in experiment [4]; 38.8 µM in experiment [5]; more than 100 µM in experiment [18]. The TGI is more than 100 µM in [6]; more than 100 µM in [8]; more than 100 µM in experiment [9]; more than 100 µM in experiment [11]; 35.4 µM in experiment [12]; more than 100 µM in experiment [13]. The TGI in [14] is 83.8 µM; in experiment [15], more than 100 µM; in experiment [16], more than 100 µM; in [17] it was 79.7 µM.
With `CCCc1c(O)c2ccccc2[nH]c1=O`, the TGI in experiment [1], in experiment [2], in [3], in experiment [4], in experiment [5] and in [18] was more than 100 µM throughout. Further, the TGI in experiment [6], in [7], in experiment [8], in experiment [9], in experiment [10] and in experiment [11] was more than 100 µM throughout. Besides, the TGI in experiment [12], in [13], in experiment [14], in [15] and in experiment [16] was more than 100 µM throughout.
Consider `COc1cc(C2SC(N)=Nc3c2c(C)nn3C(=O)Cc2ccccc2)cc(OC)c1OC` (stereo unspecified), for which the TGI in experiment [2], in [3], in experiment [4], in experiment [18], in experiment [6] and in [7] was more than 100 µM in each case. Also, the TGI in experiment [8], in experiment [9], in experiment [11], in experiment [12], in experiment [13] and in experiment [14] was more than 100 µM each time. Besides, the TGI in [15], in [16] and in experiment [17] was more than 100 µM in each case.
`CCOC(=O)C(CC(C)C)NC(=O)C(N)Cc1ccc(N(CCCl)CCCl)cc1` (stereo unspecified): the TGI in experiment [1] turned out to be 3.84 µM; in [2], 32.2 µM; in experiment [3], 24.9 µM; in experiment [4] it was 19.7 µM; in experiment [18], 4.69 µM; in experiment [6], 46 µM. Besides, the TGI was found to be 45.1 µM in [7]; 12.1 µM in experiment [8]; 41.6 µM in experiment [9]; 3.1 µM in experiment [10]; 26.1 µM in [11]; 25.3 µM in experiment [12]. Moreover, the TGI is 20.1 µM in [13]; 13.7 µM in experiment [14]; 19.8 µM in experiment [15]; 17.9 µM in experiment [16]; 15.1 µM in [17].
Turning to `CCCCN(CCCC)C1(c2cc3ccccc3s2)CCCCC1`, the TGI in experiment [2] was found to be 34.1 µM; in experiment [3] it was 34.4 µM; in [4], 36.6 µM; in [5] it was 34 µM; in [18], 33.5 µM; in experiment [6], 35.1 µM. Moreover, the TGI stood at 34 µM in experiment [7]; 31.3 µM in experiment [8]; 32.9 µM in experiment [9]; 30 µM in [10]; 31.5 µM in [11]; 31.2 µM in experiment [12]. Further, the TGI stood at 30.4 µM in [13]; 34.1 µM in experiment [14]; 40.7 µM in experiment [15]; 23.7 µM in experiment [16]; 34.7 µM in experiment [17].
For the molecule `N=C(N)SCCSC(=N)N`, the TGI in experiment [1], in [2], in experiment [3], in [4], in experiment [5] and in experiment [6] was more than 100 µM each time. In addition, the TGI in experiment [7], in [8], in experiment [9], in experiment [10], in [11] and in experiment [12] was more than 100 µM each time. In addition, the TGI in [13], in experiment [14], in [15], in experiment [16] and in experiment [17] was more than 100 µM in each case.
As for `Brc1ccc(N=C/C=C(\Nc2ccc(Br)cc2)C23CC4CC(CC(C4)C2)C3)cc1`, the TGI in experiment [1] is 42.8 µM; in experiment [2], 41 µM; in experiment [3], more than 81.3 µM; in experiment [4], more than 64.2 µM; in experiment [5] it was more than 84.9 µM; in [6], 49.7 µM. Further, the TGI in experiment [7] was more than 100 µM; in experiment [8], 47.3 µM; in experiment [9], more than 67 µM; in experiment [10] it was 31.3 µM; in experiment [11], 34.9 µM; in experiment [12], 28.6 µM. Besides, the TGI in experiment [13] is 33.9 µM; in experiment [14], more than 59.5 µM; in experiment [15], 26.6 µM; in experiment [16], 23.8 µM; in experiment [17] it was 43.9 µM.
Take `CC(=O)OCC(OC(C)=O)C(OC(C)=O)C(/C=N\Nc1nc2ccccc2c(=O)[nH]1)OC(C)=O` (stereo unspecified): the TGI in experiment [2], in [3], in [4], in experiment [5], in experiment [18] and in [6] was more than 100 µM each time. Besides, the TGI in experiment [7], in [8], in experiment [9], in experiment [11], in experiment [12] and in experiment [13] was more than 100 µM each time. The TGI in experiment [14], in [15], in experiment [16] and in experiment [17] was more than 100 µM throughout.
As to `Cc1cc(N(C)C)ccc1N=Nc1ccc2ncccc2c1`, the TGI in experiment [1], in [2], in experiment [3], in experiment [4], in [5] and in experiment [18] was more than 100 µM each time. Also, the TGI was more than 100 µM in experiment [6]; more than 100 µM in experiment [7]; more than 100 µM in experiment [8]; more than 100 µM in experiment [9]; more than 100 µM in [11]; 76.2 µM in experiment [12]. For the same molecule, the TGI is more than 100 µM in [13], 98.1 µM in experiment [15], more than 100 µM in experiment [16] and more than 100 µM in experiment [17].
With `COc1ccc(-c2nc(SCC(=O)N/N=C/c3ccc([N+](=O)[O-])cc3)[nH]c2-c2ccc(OC)cc2)cc1`, the TGI in experiment [1] is 50.8 µM; in experiment [2], more than 100 µM; in experiment [3], more than 100 µM; in experiment [4], 46.6 µM; in experiment [5] it was 79.7 µM; in [6] it was 51.3 µM. Besides, the TGI in [7] was more than 100 µM; in experiment [8], 5.28 µM; in [9], more than 100 µM; in experiment [10], more than 100 µM; in [11] it was 12.9 µM; in experiment [12] it was more than 100 µM. The TGI in [13] is 35.9 µM; in experiment [14], more than 72 µM; in experiment [15] it was 19.9 µM; in experiment [16], 37.3 µM; in [17] it was more than 100 µM.
For `COc1cc(/C=C2\N=C(c3ccccc3)N(c3ccc4c(c3)Sc3cc(N5C(=O)/C(=C/c6cc(OC)c(OC)c(OC)c6)N=C5c5ccccc5)ccc3N4)C2=O)cc(OC)c1OC`, the TGI in experiment [1] was 41.1 µM; in experiment [2] it was 38.3 µM; in experiment [3], 37.9 µM; in experiment [4], 51 µM; in experiment [5], more than 100 µM; in experiment [6], 55.6 µM. The TGI in experiment [7] was more than 100 µM; in experiment [8], 47.4 µM; in experiment [9], 48.4 µM; in experiment [10], 36.9 µM; in experiment [11], 37.9 µM; in experiment [12], 30.9 µM. The TGI in experiment [13] was more than 100 µM; in experiment [14], more than 100 µM; in experiment [15], 30.1 µM; in experiment [16] it was more than 100 µM; in experiment [17] it was 70.2 µM.
As to `COc1ccc2cc(NC(=O)Nn3cnnc3)ccc2c1`, the TGI in experiment [1], in experiment [2], in [3], in experiment [18], in experiment [6] and in experiment [7] was more than 100 µM in each case. For the same molecule, the TGI in experiment [8], in [9], in experiment [10], in experiment [11], in experiment [12] and in experiment [13] was more than 100 µM each time. Besides, the TGI in experiment [14], in experiment [15], in experiment [16] and in [17] was more than 100 µM throughout.

The record behind these values is PubChem BioAssay (NCI).
